According to ChEMBL document CHEMBL1201862, “PubChem BioAssay data set” (2004):
The source made the active and inactive calls.

Tests used:
Cytochrome P450 3A4 = Cytochrome P450 3A4 (Homo sapiens, UniProt P08684); conditions: Potency;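 also: confirmatory qHTS run detecting inhibitors and substrates of CYP3A4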
[1] = molecular target: NAD-dependent protein deacylase sirtuin-5, mitochondrial (Homo sapiens, UniProt Q9NXA8); test: sirtuin-5 deacylation blockers, concentration series – biochemical, fluorescence imaging, cherry-pick, set 5, dose response (AID 720591);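 also: desuccinylation of succinyl peptide AMC substrate read as fluorescence after trypsin release; potency of inhibitors that lower fluorescence and may act on trypsin instead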
[2] = molecular target: T1, Small ubiquitin-related modifier 1 (Homo sapiens, UniProt P63165); test: SUMO1 protein-protein binding blockers, potency – biochemical, FRET, dose response (AID 624383); assay type: functional; conditions: read-out: IC50_Mean
[3] = molecular target: Eukaryotic translation initiation factor 4E (Mus musculus, UniProt P63073); test: blockers of eIF4G binding by eIF4E – biochemical, TR-FRET, dose response (AID 855); assay type: functional;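 also: potency for disrupting eIF4E binding to eIF4GI seen as loss of FRET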
[4] = molecular target: T1, Small ubiquitin-related modifier 1; test: SUMO1 protein interaction blockers, potency – biochemical, fluorescence polarization, uHTS hits, dose response (AID 624382); assay type: functional; conditions: read-out: IC50_Mean
[5] = molecular target: Luciferin 4-monooxygenase (Photinus pyralis, UniProt P08659); test: inhibition of purified Photinus pyralis luciferase – biochemical, luminescence, dose response (AID 1891)
[6] = DRD fibroblast viability loss – cell-based, non-viral oncogenic, luminescence, dose response (AID 1934); assay type: functional; conditions: Homo sapiens
BJ [7] = test: BJ-TERT-LT-ST fibroblast viability loss – cell-based, RAS-independent, luminescence, dose response (AID 1935); assay type: functional; conditions: Homo sapiens;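 also: BJ fibroblasts immortalized with TERT plus LT and ST oncogenes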
[8] = Luminescence Cell-Based Dose Confirmation HTS to Identify Inhibitors of Platelet Dense Granule Release. [Related pubchem assays: 1663 (Primary HTS), 1678 (Summary of Project)]; assay type: functional
BJ [9] = test: cells; assay type: functional, cell-based; conditions: Homo sapiens
BJ [10] = test: BJ-TERT fibroblast viability loss – cell-based, RAS-independent, luminescence, dose response (AID 1933); assay type: functional; conditions: Homo sapiens
[11] = molecular target: Peroxisome proliferator-activated receptor gamma/Nuclear receptor coactivator 3 (Homo sapiens, UniProt P37231); assay type: functional;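 also: agonist potency for raising coactivator recruitment to the receptor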
[12] = molecular target: Peroxisome proliferator-activated receptor gamma/Nuclear receptor coactivator 2 (Homo sapiens, UniProt P37231); assay type: functional;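 also: agonist potency for raising coactivator recruitment to the receptor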
[13] = molecular target: Peroxisome proliferator-activated receptor gamma/Nuclear receptor coactivator 1 (Homo sapiens, UniProt P37231); assay type: functional;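 also: agonist potency as compounds enhance coactivator SRC-1 recruitment to PPARgamma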
[14] = NIH3T3 cell viability loss – ATP luminescence, mouse fibroblasts, counter-screen, dose response (AID 2010); assay type: functional, cell-based;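 also: cells exposed to compound for about 90 hours before reading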
[15] = Trypanosoma cruzi growth suppression in host cells – NIH3T3 host cells, beta-gal luminescence, confirmation (AID 2044); assay type: functional, cell-based;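 also: intracellular parasites grown in NIH/3T3 mouse fibroblasts as host cells; luminescent beta-galactosidase reporter signal from transgenic T. cruzi replicating inside host cells; inhibitors lower the luminescence signal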
[16] = molecular target: Induced myeloid leukemia cell differentiation protein Mcl-1 (Homo sapiens, UniProt Q07820); assay type: functional
fMet-Leu-Phe receptor = molecular target: T2, fMet-Leu-Phe receptor (Homo sapiens, UniProt P21462); test: formyl peptide receptor binders – dose response (AID 519); assay type: functional
T2 sequence (P21462 whole entry): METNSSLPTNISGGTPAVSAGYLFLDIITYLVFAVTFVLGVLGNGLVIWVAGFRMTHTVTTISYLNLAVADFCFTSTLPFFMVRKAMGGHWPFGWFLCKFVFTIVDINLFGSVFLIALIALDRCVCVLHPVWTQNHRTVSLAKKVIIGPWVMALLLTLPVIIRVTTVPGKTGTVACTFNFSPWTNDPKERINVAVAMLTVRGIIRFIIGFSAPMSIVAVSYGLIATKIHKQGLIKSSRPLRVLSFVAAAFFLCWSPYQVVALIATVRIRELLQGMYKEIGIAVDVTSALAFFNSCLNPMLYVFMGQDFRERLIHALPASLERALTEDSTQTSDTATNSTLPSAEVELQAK

[17] = molecular target: T3, DNA repair protein RAD52 homolog (Homo sapiens, UniProt P43351); assay type: functional, biochemical
T3 sequence (P43351 whole entry): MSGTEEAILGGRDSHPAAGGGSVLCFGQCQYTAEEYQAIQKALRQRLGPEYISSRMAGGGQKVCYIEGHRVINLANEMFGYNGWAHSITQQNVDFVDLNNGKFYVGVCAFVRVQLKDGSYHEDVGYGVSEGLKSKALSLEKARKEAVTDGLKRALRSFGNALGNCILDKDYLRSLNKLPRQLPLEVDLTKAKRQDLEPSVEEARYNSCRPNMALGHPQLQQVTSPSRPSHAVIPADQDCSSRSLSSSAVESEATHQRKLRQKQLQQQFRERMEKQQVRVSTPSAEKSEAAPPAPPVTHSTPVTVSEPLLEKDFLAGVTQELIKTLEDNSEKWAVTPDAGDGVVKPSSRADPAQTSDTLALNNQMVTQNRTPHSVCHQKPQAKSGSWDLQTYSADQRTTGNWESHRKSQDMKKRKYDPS

[18] = molecular target: T4, Rac GTPase-activating protein 1 (Homo sapiens, UniProt Q9H0H5); test: blockers of MgcRacGAP-driven Rac1 GTP hydrolysis – biochemical, ADP Hunter fluorescence, primary and confirmatory, confirmation (AID 624330); assay type: functional
T4 sequence (Q9H0H5 whole entry): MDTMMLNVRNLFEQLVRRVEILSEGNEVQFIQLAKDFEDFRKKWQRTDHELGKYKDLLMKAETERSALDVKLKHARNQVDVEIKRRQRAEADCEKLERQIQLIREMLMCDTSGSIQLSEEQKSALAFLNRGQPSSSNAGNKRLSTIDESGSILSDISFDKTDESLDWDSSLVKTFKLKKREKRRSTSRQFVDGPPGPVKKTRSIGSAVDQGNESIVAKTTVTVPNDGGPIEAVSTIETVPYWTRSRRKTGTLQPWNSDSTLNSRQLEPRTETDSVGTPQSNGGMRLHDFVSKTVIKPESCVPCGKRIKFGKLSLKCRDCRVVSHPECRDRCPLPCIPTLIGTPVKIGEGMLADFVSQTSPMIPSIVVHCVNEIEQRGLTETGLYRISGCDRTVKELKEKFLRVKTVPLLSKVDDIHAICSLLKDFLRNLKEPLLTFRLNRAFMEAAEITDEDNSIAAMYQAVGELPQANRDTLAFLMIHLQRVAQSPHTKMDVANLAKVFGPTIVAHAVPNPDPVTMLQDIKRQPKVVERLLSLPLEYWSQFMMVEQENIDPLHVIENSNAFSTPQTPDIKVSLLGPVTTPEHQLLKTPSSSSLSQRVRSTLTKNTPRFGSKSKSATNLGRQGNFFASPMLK

[19] = molecular target: T5, Carboxy-terminal domain RNA polymerase II polypeptide A small phosphatase 1 (Homo sapiens, UniProt Q9GZU7); test: CTDSP1 inhibitors, concentration-response, biochemical, absorbance readout, ultra-high-throughput screen actives (AID 540297); assay type: functional
T5 sequence (Q9GZU7 whole entry): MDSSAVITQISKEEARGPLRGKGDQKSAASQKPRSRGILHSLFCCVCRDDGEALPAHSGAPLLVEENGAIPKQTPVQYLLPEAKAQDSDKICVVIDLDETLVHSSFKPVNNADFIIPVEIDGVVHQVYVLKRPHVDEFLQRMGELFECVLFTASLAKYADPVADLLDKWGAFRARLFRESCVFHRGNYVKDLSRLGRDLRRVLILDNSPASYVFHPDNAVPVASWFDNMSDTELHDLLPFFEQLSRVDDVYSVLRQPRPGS

[20] = growth inhibition of yeast DHODH-expressing 3D7 parasites – SYBR Green, dry powder samples, dose response (AID 1159570); assay type: functional, cell-based;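 also: parasite growth measured after 72 hours of compound exposure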
[21] = growth inhibition of PfATP4-mutant resistant parasites – NITD609-resistant line, SYBR Green, dry powder, dose response (AID 1159571); assay type: functional, cell-based;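 also: parasites synchronized at ring stage by sorbitol before testing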
[22] = Dd2 malaria parasite growth inhibition potency – SYBR Green, dry powder samples, dose response (AID 1159566); assay type: functional, cell-based;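 also: potency for growth inhibition with lower SYBR green DNA signal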
[23] = P. falciparum Dd2 growth inhibitors, dose response, SYBR Green, cherry-picked samples (AID 1159567); assay type: functional, cell-based
[24] = toxicity to human hepatoma HepG2 cells – cell-based, cherry-picked samples, cytotoxicity control, dose response (AID 1159577); assay type: functional

Sequence of NAD-dependent protein deacylase sirtuin-5, mitochondrial (Q9NXA8 whole entry): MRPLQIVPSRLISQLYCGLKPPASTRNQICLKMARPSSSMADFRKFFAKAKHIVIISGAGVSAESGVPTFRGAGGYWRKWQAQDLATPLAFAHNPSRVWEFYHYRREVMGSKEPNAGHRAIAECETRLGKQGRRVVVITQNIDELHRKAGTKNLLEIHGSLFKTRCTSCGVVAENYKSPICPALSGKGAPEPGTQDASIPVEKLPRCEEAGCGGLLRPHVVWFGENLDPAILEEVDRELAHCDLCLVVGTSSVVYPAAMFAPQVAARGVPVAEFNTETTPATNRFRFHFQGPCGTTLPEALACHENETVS
Sequence of Cytochrome P450 3A4 (P08684 whole entry): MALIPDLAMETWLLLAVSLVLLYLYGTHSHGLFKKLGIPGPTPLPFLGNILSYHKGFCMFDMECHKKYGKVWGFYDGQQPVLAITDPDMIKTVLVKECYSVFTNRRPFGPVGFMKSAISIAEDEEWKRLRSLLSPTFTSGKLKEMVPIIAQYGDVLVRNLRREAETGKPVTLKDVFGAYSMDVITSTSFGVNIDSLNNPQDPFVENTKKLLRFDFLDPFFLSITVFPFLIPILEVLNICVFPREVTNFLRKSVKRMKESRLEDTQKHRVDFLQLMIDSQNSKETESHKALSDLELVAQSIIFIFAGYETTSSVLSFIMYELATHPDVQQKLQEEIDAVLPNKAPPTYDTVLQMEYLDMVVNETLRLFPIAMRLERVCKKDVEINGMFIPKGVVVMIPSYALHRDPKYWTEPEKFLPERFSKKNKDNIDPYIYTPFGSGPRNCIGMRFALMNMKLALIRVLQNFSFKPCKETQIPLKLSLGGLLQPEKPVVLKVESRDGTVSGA
Sequence of Peroxisome proliferator-activated receptor gamma/Nuclear receptor coactivator 2 (P37231 whole entry): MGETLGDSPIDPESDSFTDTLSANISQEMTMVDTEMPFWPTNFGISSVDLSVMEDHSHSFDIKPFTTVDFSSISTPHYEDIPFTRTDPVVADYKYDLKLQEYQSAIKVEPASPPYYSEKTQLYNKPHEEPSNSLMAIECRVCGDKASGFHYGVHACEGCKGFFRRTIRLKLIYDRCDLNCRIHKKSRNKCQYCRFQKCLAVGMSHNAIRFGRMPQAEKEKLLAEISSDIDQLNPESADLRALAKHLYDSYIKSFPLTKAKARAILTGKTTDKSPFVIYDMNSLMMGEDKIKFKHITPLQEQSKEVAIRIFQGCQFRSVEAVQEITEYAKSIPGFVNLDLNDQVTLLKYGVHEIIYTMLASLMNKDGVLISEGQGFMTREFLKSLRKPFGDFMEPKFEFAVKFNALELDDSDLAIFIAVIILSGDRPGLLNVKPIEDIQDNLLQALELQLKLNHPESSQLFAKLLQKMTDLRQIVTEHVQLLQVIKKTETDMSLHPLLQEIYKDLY
Sequence of Peroxisome proliferator-activated receptor gamma/Nuclear receptor coactivator 2 (Q15596 whole entry, further chain): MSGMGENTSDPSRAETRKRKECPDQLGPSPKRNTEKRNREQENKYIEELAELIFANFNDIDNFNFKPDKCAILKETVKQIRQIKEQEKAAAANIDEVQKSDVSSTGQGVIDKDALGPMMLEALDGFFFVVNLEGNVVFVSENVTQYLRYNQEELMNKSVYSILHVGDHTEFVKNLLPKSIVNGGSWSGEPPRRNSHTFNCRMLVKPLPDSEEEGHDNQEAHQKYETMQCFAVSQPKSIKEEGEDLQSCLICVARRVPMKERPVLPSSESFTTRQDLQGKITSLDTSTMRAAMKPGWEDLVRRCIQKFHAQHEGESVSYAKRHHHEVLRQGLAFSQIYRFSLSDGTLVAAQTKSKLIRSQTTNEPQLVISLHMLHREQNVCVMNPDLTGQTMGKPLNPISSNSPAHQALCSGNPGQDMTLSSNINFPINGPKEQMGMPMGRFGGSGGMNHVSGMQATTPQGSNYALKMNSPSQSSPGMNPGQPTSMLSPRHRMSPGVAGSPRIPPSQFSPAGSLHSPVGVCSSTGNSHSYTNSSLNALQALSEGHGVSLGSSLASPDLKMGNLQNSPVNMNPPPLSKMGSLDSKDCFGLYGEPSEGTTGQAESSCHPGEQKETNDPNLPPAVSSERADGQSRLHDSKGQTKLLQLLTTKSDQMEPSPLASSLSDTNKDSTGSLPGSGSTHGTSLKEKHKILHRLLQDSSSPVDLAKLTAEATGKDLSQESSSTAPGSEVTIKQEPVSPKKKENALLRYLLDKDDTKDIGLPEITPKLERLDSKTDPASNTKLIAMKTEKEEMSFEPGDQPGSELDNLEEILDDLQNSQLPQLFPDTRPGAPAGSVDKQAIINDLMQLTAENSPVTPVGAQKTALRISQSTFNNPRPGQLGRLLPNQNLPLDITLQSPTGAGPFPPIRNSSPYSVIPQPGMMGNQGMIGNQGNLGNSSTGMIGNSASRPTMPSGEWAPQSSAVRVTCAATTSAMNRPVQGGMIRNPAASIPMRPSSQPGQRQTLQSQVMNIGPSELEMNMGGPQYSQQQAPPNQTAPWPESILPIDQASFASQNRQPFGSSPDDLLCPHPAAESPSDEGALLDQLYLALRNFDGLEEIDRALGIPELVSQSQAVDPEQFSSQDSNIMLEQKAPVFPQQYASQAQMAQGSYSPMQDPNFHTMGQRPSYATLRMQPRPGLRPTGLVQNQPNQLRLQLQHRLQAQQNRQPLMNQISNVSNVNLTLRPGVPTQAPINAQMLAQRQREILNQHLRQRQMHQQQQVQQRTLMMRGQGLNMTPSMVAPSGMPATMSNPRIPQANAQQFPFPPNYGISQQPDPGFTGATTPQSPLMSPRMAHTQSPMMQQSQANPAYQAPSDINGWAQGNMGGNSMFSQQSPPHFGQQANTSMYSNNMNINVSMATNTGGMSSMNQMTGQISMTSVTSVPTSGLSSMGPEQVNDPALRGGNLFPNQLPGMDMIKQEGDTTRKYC
Sequence of Peroxisome proliferator-activated receptor gamma/Nuclear receptor coactivator 1 (P37231 whole entry): as the sequence (P37231 whole entry) above
Sequence of Peroxisome proliferator-activated receptor gamma/Nuclear receptor coactivator 1 (Q15788 whole entry, further chain): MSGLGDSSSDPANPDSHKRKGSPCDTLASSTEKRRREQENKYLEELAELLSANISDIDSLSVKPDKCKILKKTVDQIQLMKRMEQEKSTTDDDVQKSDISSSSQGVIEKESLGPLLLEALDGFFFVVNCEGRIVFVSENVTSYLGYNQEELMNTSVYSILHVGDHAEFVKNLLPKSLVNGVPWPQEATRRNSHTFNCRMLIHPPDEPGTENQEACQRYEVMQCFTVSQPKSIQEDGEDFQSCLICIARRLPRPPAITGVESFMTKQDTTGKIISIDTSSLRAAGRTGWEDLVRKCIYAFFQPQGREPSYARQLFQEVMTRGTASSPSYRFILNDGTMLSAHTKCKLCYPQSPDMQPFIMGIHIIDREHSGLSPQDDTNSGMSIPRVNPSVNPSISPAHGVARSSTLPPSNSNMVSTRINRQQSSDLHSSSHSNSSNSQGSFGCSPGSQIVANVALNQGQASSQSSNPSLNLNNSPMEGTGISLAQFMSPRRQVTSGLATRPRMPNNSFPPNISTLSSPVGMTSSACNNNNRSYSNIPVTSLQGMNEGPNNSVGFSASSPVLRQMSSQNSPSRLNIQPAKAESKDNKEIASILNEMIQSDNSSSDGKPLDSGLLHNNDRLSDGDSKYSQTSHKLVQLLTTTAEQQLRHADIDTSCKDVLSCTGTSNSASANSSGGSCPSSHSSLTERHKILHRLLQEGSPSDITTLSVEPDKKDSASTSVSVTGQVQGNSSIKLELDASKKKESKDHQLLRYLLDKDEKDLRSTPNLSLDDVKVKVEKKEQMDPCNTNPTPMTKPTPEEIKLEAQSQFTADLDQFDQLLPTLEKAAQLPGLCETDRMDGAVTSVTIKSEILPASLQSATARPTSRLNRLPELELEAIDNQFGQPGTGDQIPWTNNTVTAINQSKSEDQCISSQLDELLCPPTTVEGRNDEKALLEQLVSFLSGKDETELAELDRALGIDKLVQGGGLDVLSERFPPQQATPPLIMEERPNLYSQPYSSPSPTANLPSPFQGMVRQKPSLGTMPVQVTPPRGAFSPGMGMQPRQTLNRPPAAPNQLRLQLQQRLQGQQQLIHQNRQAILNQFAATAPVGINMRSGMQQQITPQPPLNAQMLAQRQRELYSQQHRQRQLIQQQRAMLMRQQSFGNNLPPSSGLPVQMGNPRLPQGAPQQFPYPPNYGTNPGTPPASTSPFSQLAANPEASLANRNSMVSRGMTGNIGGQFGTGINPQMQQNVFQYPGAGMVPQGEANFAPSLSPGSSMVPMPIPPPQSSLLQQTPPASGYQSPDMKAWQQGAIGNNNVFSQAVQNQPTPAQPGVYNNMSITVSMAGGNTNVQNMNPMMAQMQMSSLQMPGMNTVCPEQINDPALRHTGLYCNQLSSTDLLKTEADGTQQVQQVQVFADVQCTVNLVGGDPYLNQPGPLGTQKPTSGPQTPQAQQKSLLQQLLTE
T1 sequence (P63165 whole entry): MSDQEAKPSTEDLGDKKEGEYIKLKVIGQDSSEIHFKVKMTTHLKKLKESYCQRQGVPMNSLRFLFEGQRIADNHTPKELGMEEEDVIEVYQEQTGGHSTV
Sequence of Eukaryotic translation initiation factor 4E (P63073 whole entry): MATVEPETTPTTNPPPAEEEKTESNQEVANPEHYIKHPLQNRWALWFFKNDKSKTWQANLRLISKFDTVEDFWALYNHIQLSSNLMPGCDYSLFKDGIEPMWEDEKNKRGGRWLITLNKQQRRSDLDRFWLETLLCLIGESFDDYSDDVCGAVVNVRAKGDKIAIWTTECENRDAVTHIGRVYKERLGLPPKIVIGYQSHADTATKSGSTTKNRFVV

N#CCC(=O)NC(=O)NCC1CC1
AC50 (Cytochrome P450 3A4): 0.0126 µM (inconclusive)

COc1ccc(OC)c(-c2csc(NC(=O)Cn3[nH]c(=O)c4ccccc4c3=O)n2)c1
AC50 [1]: 28 µM (active) | IC50 [2]: 100 µM (inactive) | IC50 [3]: 50 µM (inactive) | IC50 [4]: > 66.6 µM (inactive)

Cc1ncsc1C(=O)Nc1nc2c(s1)CCCC2
EC50 [5]: 3.81 µM (active) | EC50 [6]: 20.9 µM (inconclusive) | EC50 (BJ [7]): > 150 µM (not active) | EC50 [8]: 3.99 µM (active) | EC50 (BJ [9]): 20 µM (active) | EC50 (BJ [10]): 18 µM (active)

CCc1ccc(N(C(=O)c2csnn2)C(C(=O)NC(C)(C)C)c2cccnc2)cc1 (stereo not drawn)
EC50 [11]: > 79.4 µM (not active) | EC50 [12]: > 79.4 µM (not active) | EC50 [13]: > 79.4 µM (not active)

CCn1cc(S(=O)(=O)Nc2ccccc2C(F)(F)F)cn1
EC50 [11]: > 79.4 µM (not active) | EC50 [12]: > 79.4 µM (not active) | EC50 [13]: > 79.4 µM (not active)

c1nc[nH]n1
AC50 (Cytochrome P450 3A4): 31.6 µM (inconclusive)

CN(C)CCCN(C(=O)c1ccc(N2C(=O)CCC2=O)cc1)c1nc2c(F)cccc2s1
EC50 [11]: > 79.4 µM (not active) | EC50 [14]: > 30 µM (not active) | EC50 [15]: 0.471 µM (active) | EC50 [12]: > 79.4 µM (not active) | EC50 [13]: > 79.4 µM (not active)

O=C(COC(=O)c1ccc2c(c1)C(=O)N(Cc1ccncc1)C2=O)Nc1ccccc1[N+](=O)[O-]
IC50 [16]: 4.84 µM (active)

COC(=O)C1=[N+]([O-])OC(C(=O)OC)C1c1c[nH]c2ccccc12 (stereo not drawn)
Ki (fMet-Leu-Phe receptor): > 66.7 µM (inactive)

COC(=O)[C@@H]1C[C@H]2CC[C@H](O)C[C@H]2N1CC1CC1
AC50 (Cytochrome P450 3A4): 20 µM (inconclusive)

CCN1CCN(c2ccc(N)c(C)c2)CC1
AC50 [17]: 3.46 µM (active) | IC50 [18]: 48.3 µM (active)

COc1ccc(S(=O)(=O)N2CCOCC2)cc1NC(=O)CSc1n[nH]c(C(C)C)n1
AC50 [1]: > 30 µM (inactive)

COc1ccc(S(=O)(=O)N2CCOc3ccccc32)cc1
EC50 [6]: 13.1 µM (inconclusive) | EC50 (BJ [7]): 10.3 µM (inconclusive) | EC50 (BJ [9]): 55.9 µM (inconclusive) | EC50 (BJ [10]): 14 µM (active)

CCN(C(=O)Cc1c(C(=O)O)[nH]c2ccccc12)c1cc(OC)ccc1OC
Ki (fMet-Leu-Phe receptor): 18.4 µM (inactive)

CCN(CC)C(=O)CSc1nc2ncccc2[nH]1
EC50 [11]: > 79.4 µM (not active) | EC50 [12]: > 79.4 µM (not active) | EC50 [13]: > 79.4 µM (not active)

O=C(Nc1ccc(Nc2ccccc2)cc1)c1ccc(Br)o1
Ki (fMet-Leu-Phe receptor): > 66.7 µM (inactive)

CSc1ccccc1NC(=O)COC(=O)CCC(=O)c1ccc(F)cc1
AC50 [1]: > 30 µM (inactive)

O=C(N/N=C/c1ccco1)c1cccc(N2Cc3ccccc3C2)c1
IC50 [19]: 4.27 µM (active) | IC50 [16]: 3.75 µM (active)

C[C@H](CO)N1C[C@H](C)[C@H](CN(C)S(=O)(=O)c2ccc([N+](=O)[O-])cc2)OCc2ccccc2-c2c(n(C)c3ccccc23)C1=O
AC50 [20]: 0.476 µM (active) | AC50 [21]: 0.308 µM (active) | AC50 [22]: 0.305 µM (active) | AC50 [23]: 1 µM (active)

CCc1csc(N2[C@H](C#N)[C@H](c3ccccc3-c3ccc(F)cc3)[C@H]2CO)n1
AC50 [20]: 1.13 µM (active) | AC50 [21]: 5.46 µM (active) | AC50 [22]: 0.989 µM (active) | AC50 [23]: 2.65 µM (active)

COc1ccc2c3c([nH]c2c1)[C@@H](CO)N(C(=O)CN(C)C)CC31CN(CC2CCCC2)C1
AC50 [24]: 13.8 µM (active) | AC50 [23]: 2.12 µM (active)

Nc1ccc(-c2ccc(N)cc2)cc1 [BENZIDINE]
AC50 (Cytochrome P450 3A4): 25.1 µM (inconclusive) | IC50 [18]: 7.39 µM (active)
